Literature values, collected in PubChem BioAssay AID1259409 (Chemical Carcinogenesis Research Information System (CCRIS), 2018).

Test system: rodent chemically induced tumor inhibition, incidence and multiplicity
Test: CCRIS tumor inhibitor studies

In the case of `C[C@@]12CCc3occc3[C@H]1CC[C@@]13C[C@@H](CC[C@H]12)[C@@](O)(CO)C3`, the “tumour outcome (control, treated, inhibition, significance)” value (Carcinogen: 7,12-DIMETHYLBENZ[A]ANTHRACENE, 57-97-6, Dose [Inhibitor]: 0, 0.2 G/KG OF DIET OF 50:50 MIXTURE OF KAHWEOL AND CAFESTOL FOR 14 WK BEGINNING 1 WK PRIOR TO CARCINOGEN TREATMENT (STU, Route [Inhibitor]: ORAL, Species: HAMSTER, Strain/Sex: SYRIAN/FEMALE, Target Tissue: Type of Lesion: BUCCAL POUCH: TUMOR, Dose [Carcinogen]: 0.5% SOLUTION IN MINERAL OIL PAINTED ON LEFT BUCCAL POUCH 3/WK FOR 13 WK, Promoter: NONE USED) is given as 14/14 (100%), 14/14 (100%), 0%, not significant and the “tumour outcome (control, treated, inhibition, significance)” value (Carcinogen: 7,12-DIMETHYLBENZ[A]ANTHRACENE, 57-97-6, Dose [Inhibitor]: 0, 2 G/KG OF DIET OF 50:50 MIXTURE OF KAHWEOL AND CAFESTOL FOR 14 WK BEGINNING 1 WK PRIOR TO CARCINOGEN TREATMENT (STUDY, Route [Inhibitor]: ORAL, Species: HAMSTER, Strain/Sex: SYRIAN/FEMALE, Target Tissue: Type of Lesion: BUCCAL POUCH: TUMOR, Dose [Carcinogen]: 0.5% SOLUTION IN MINERAL OIL PAINTED ON LEFT BUCCAL POUCH 3/WK FOR 13 WK, Promoter: NONE USED) is given as 14/14 (100%), 14/15 (93%), 7%, not significant.

In the case of `Cn1cnc2c1c(=O)[nH]c(=O)n2C`, the “tumour outcome (control, treated, inhibition, significance)” value (Carcinogen: URETHANE, 51-79-6, Dose [Inhibitor]: 0.05 UMOL/G BW GIVEN AS 7 INJECTIONS 1/6 HR FOR 36 HR AFTER CARCINOGEN TREATMENT FOLLOWED BY 5 MO OBSERVATION PERIOD (ST, Route [Inhibitor]: INTRAPERITONEAL, Species: MOUSE, Strain/Sex: ICR/FEMALE, Target Tissue: Type of Lesion: LUNG: PAPILLARY ADENOMA, Dose [Carcinogen]: 0.1 MG/G BW ONCE AT 25 D OF AGE, Promoter: NONE USED) is given as 31/59 (53%), 11/56 (20%), 62%, p<0.001.

In the case of `Clc1c(Cl)c(Cl)c2c(c1Cl)Oc1c(Cl)c(Cl)c(Cl)c(Cl)c1O2`, the “tumour outcome (control, treated, inhibition, significance)” value (Carcinogen: 7,12-DIMETHYLBENZ[A]ANTHRACENE, 57-97-6, Dose [Inhibitor]: 0, 17 NMOL 2/WK APPLIED 1 HR PRIOR TO EACH PROMOTER DOSE FOR 20 WK (STUDY DURATION: 21 WK), Route [Inhibitor]: DERMAL, Species: MOUSE, Target Tissue: Type of Lesion: SKIN: TUMOR, Dose [Carcinogen]: 390 NMOL ONCE, Promoter: 12-O-TETRADECANOYLPHORBOL-13-ACETATE, 16561-29-8) is listed as 100%, 87%, 13%, not calculated.

In the case of `CS(=O)CCCCN=C=S` (stereo not given), the “tumour outcome (control, treated, inhibition, significance)” value (Carcinogen: 4-(METHYLNITROSAMINO)-1-(3-PYRIDYL)-1-BUTANONE (NNK) [64091-91-4], Dose [Inhibitor]: 1.5 UM/G DIET, BEGINNING 13 WKS AFTER CARCINOGEN/PROMOTER TREATMENT (STUDY DURATION: 42 WK), Route [Inhibitor]: DIET, Species: MOUSE, Strain/Sex: A/J/FEMALE (39,?)/(20,?), Target Tissue: Type of Lesion: LUNG: ADENOCARCINOMA, Dose [Carcinogen]: 3 µM WEEKLY FOR 8 DOSES, Promoter: BENZO[A]PYRENE [50-32-8]) is listed as 42%, 20%, 52%, not significant, the “tumour outcome (control, treated, inhibition, significance)” value (Carcinogen: 4-(METHYLNITROSAMINO)-1-(3-PYRIDYL)-1-BUTANONE (NNK) [64091-91-4], Dose [Inhibitor]: 1.5 UM/G DIET, BEGINNING 13 WKS AFTER CARCINOGEN/PROMOTER TREATMENT (STUDY DURATION: 42 WK), Route [Inhibitor]: DIET, Species: MOUSE, Strain/Sex: A/J/FEMALE (39,?)/(20,?), Target Tissue: Type of Lesion: LUNG: ADENOMA, Dose [Carcinogen]: 3 µM WEEKLY FOR 8 DOSES, Promoter: BENZO[A]PYRENE [50-32-8]) is listed as 100%, 100%, 0%, not significant and the “tumour outcome (control, treated, inhibition, significance)” value (Carcinogen: 4-(METHYLNITROSAMINO)-1-(3-PYRIDYL)-1-BUTANONE (NNK) [64091-91-4], Dose [Inhibitor]: 3 UM/G DIET, BEGINNING 13 WKS AFTER CARCINOGEN/PROMOTER TREATMENT (STUDY DURATION: 42 WK), Route [Inhibitor]: DIET, Species: MOUSE, Strain/Sex: A/J/FEMALE (39,?)(32,?), Target Tissue: Type of Lesion: LUNG: ADENOCARCINOMA, Dose [Carcinogen]: 3 µM WEEKLY FOR 8 DOSES, Promoter: BENZO[A]PYRENE [50-32-8]) is listed as 42%, 28%, 33%, not significant. The “tumour outcome (control, treated, inhibition, significance)” value (Carcinogen: 4-(METHYLNITROSAMINO)-1-(3-PYRIDYL)-1-BUTANONE (NNK) [64091-91-4], Dose [Inhibitor]: 3 UM/G DIET, BEGINNING 13 WKS AFTER CARCINOGEN/PROMOTER TREATMENT (STUDY DURATION: 42 WK), Route [Inhibitor]: DIET, Species: MOUSE, Strain/Sex: A/J/FEMALE (39,?)/(32,?), Target Tissue: Type of Lesion: LUNG: ADENOMA, Dose [Carcinogen]: 3 µM WEEKLY FOR 8 DOSES, Promoter: BENZO[A]PYRENE [50-32-8]) was 100%, 93%, 7%, not significant, the “tumour outcome (control, treated, inhibition, significance)” value (Carcinogen: 7,12-DIMETHYLBENZ[A]ANTHRACENE, 57-97-6, Dose [Inhibitor]: 0, 75 UMOL/D IN 0.5 ML EMULPHOR EL-620 FOR 5 CONSECUTIVE DAYS BEGINNING AT 47 D OF AGE (STUDY DURATION: 155 D), Route [Inhibitor]: GAVAGE, Species: RAT, Strain/Sex: SPRAGUE-DAWLEY/FEMALE, Target Tissue: Type of Lesion: MAMMARY GLAND: TUMOR, Dose [Carcinogen]: 8 MG IN 1 ML SESAME OIL ONCE AT 50 D OF AGE, Promoter: NONE USED) was 17/25 (68%), 7/20 (35%), 49%, p<0.05 and the “tumour outcome (control, treated, inhibition, significance)” value (Carcinogen: 7,12-DIMETHYLBENZ[A]ANTHRACENE, 57-97-6, Dose [Inhibitor]: 0, 150 UMOL/D IN 0.5 ML EMULPHOR EL-620 FOR 5 CONSECUTIVE DAYS BEGINNING AT 47 D OF AGE (STUDY DURATION: 155 D), Route [Inhibitor]: GAVAGE, Species: RAT, Strain/Sex: SPRAGUE-DAWLEY/FEMALE, Target Tissue: Type of Lesion: MAMMARY GLAND: TUMOR, Dose [Carcinogen]: 8 MG IN 1 ML SESAME OIL ONCE AT 50 D OF AGE, Promoter: NONE USED) was 17/25 (68%), 5/19 (26%), 62%, p<0.05.
